# Counter-ions that a name gives are not always drawn. Like-named read-outs stand apart in the source and are kept apart here.
# Experiments:
# Swiss-Webster mice [1] = experiment: H1 receptor antagonist (triprolidine) interaction study, locomotor activity in mice; conditions: for effect of triprolidine pretreatment on stimulant or depressant effects: mice pretreated with triprolidine 20 min before the test compound
# Procedure: H1 receptor antagonist interaction studies. […] The mice were immediately placed in the activity testing chamber for a 2-h session. Doses of the test compound were selected from the ascending or descending time of the dose-effect curve determined from the compound-alone studies. Eight mice were tested for each triprolidine/test compound combination.
# (§1) Statistical analysis. Time course data for each compound were considered in 2-way analyses of variance with dose as a between-group and time as a within-group factor. The dose-effect data were considered in 1-way analyses of variance, and planned individual comparisons were conduced between each dose and the saline control group. Interaction studies were considered in 2-way analyses of variance, with Pretreatment and Test dose as the factors.
# Swiss-Webster mice [2] = experiment: Locomotor stimulant and depressant effects in mice; conditions: i.p.; for Depression Efficacy: ratio of the maximal depressant effect to the maximum possible effect (zero locomotor activity) / Stimulation Efficacy: ratio of the maximal stimulant effect of the test compound to the maximal effect of (+)-amphetamine: locomotor activity
# Procedure: Male Swiss-Webster mice (HSD ND4, Harlan Sprague Dawley, Houston, Tex.) aged 2–3 months were used in these studies. Each dose group consisted of 8 mice. The mice were housed 2 to 4 per cage in 30.4×22.9×15.2 cm clear polycarbonate cages with food and water available ad libitum for at least one week prior to locomotor activity testing. The colony was maintained at 23±1° C., on a normal light-dark cycle beginning at 0700 hr. All testing took place during the light portion of the light-dark cycle.
# Horizontal (forward movement) locomotor activity was measured using a standardized, optical activity monitoring system [Model KXYZCM (16), Omnitech Electronics, Columbus, Ohio]. Activity was monitored in forty 40.5×40.5×30.5 cm clear acrylic chambers that where housed in sets of two within larger sound-attenuating chambers. A panel of 16 infrared beams and corresponding photodetectors were spaced 2 cm apart along the sides and 2.4 cm above the floor of each activity chamber. A 7.5-W incandescent light above each chamber provided dim illumination via a rheostat set to 20% of full scale. Fans provided an 80-dB ambient noise level within the chamber.
# Triprolidine HCl was obtained from Research Biochemicals International, (Natick, Mass.).
# Locomotor stimulant effects. […] (+)-Amphetamine was used as a positive control. The total horizontal distance traversed (cm) was recorded at 10 minute intervals for a 2-hour session. Separate groups of 8 mice were assigned to each dose or saline group, and dose-effect testing continued for each compound until maximal stimulant or depressant effects could be estimated. A separate control group was tested along with each compound.
# Using TableCurve 2D v2.03 (Jandel Scientific), the mean average total distance traversed (cm/10 min) for that period was fit to a 3-parameter logistic peak function of log10 dose (with the constant set to the mean of the saline group), and the maximum effect estimated from the resulting curve. The […] (dose producing ½ maximal stimulant activity) was estimated from a linear regression against log10 dose of the ascending portion of the dose-effect curve. The stimulant efficacy was the peak effect of the compound (cm/10 min) as estimated from the logistic peak function, minus the mean control distance traveled (cm/10 min), and was expressed for each stimulant compound as a ratio to the stimulant efficacy determined for (+)-amphetamine.
# The mean average total distance traversed (cm/10 min) for that period were fit to a linear function of log10 dose of the descending portion of the dose-effect curve. […] Efficacy was the ratio of maximal depressant effect to maximum possible depression for each compound (mean average total distance of the control group minus the lowest mean total distance, expressed as a ratio to the control group total distance).
# as §1
# α2 adrenergic receptors = experiment: Alpha-2 binding, 125iodoclonidine, canine brain (frontal cortex) membranes; set-up: species or system canine (mongrel dogs); conditions: for Kd: canine cerebral cortex membranes
# Procedure: BRAIN ALPHA-2 RECEPTORS: Membranes of mongrel dogs were harvested from the canine frontal cortex and prepared as described for lung except that the final membrane protein concentration was adjusted to 0.5 mg/ml.
# (§2) ALPHA-2 BINDING ^125IODOCLONIDINE. […] Nonspecific binding was determined in separate incubations in the presence of 10 μM phentolamine. The final concentration of p-iodoclonidine was 44–45 pM in competition studies and between 50 pM and 10 nM in saturation experiments. Bound and free p-^125iodoclonidine were separated and the bound quantified as described above for the ICYP assays. […] BETA-2 BINDING, ^125IODOCYANOPINDOLOL (^125ICYP). […] Nonspecific binding was determined in separate incubations in the presence of 2 μM d,l-propranolol. Each experimental point was determined in triplicate. […] Incubations were terminated as described above for the α1 assays. Filters were placed into polyethylene tubes and the bound ligand was determined by gamma spectrometry (Sano et al., 1993).
# (§3) All data were analyzed with the aid of microcomputer nonlinear curve fitting programs (PRISM 2.0, Graphpad Software, San Diego Calif.).
# (§4) The receptors resident in each of the three membrane preparations were evaluated by standard saturation analysis following the addition of increasing concentrations of the appropriate radioligand. […] The radio ligand added for subsequent α2-displacement assays was adjusted to evaluate only the high affinity receptor. Contributions from p-iodoclonidine binding to imidazoline receptors in the α2-displacement assay were evaluated with epinephrine.
# (§5) The variable, I, is the concentration of tracer added and the variable, Kd, is the equilibrium dissociation constant empirically determined for this receptor population.
# β2 adrenergic receptors = target: T1, β2 adrenergic receptors (Canis lupus familiaris, UniProt P54833); experiment: Beta-2 binding, 125iodocyanopindolol (ICYP), canine lung membranes; set-up: species or system canine (mongrel dogs)
# T1 construct: Canine lung membranes (10 μg protein/100 ul) were incubated with ^125ICYP; from tissue; host or cells: mongrel dog lung membranes
# Procedure: PULMONARY ALPHA-1 AND BETA-2 RECEPTORS: The lungs of mongrel dogs were separated from cartilaginous airways and major blood vessels, weighed, chopped and placed into 10 volumes of ice-cold buffered sucrose (50 mM Tris-HCl pH 7.4, 1 mM EGTA, 0.32M Sucrose). The tissue was then homogenized in a Polytron tissue homogenizer. The homogenate was filtered through two layers of cheesecloth, and the filtrate was dounced three times using a Con-Turque Potter homogenizer. […] The supernatant was recentrifuged at 30,000×g for 30 min at 4° C. and the resulting pellet was washed and resuspended in 10 volumes of Tris buffer (50 mM Tris HCl, pH 7.4, 1 mM EGTA) and incubated at 37° C. for 30 min in a shaking water bath. The suspension was centrifuged at 4° C. at 30,000×g for 30 min and the resulting pellet washed in 10 volumes of Tris buffer. […] Protein concentration was then determined by the Lowry method and the final suspension was adjusted to 10 mg of protein/ml, aliquoted and stored at […].
# Particulates were also prepared for β2 receptors using the identical procedure except the final protein concentration was adjusted to 0.1 mg/ml.
# as §2, §3, §4, §5
# [3] = — denotes absence of significant effect
# T1 sequence (P54833 whole entry): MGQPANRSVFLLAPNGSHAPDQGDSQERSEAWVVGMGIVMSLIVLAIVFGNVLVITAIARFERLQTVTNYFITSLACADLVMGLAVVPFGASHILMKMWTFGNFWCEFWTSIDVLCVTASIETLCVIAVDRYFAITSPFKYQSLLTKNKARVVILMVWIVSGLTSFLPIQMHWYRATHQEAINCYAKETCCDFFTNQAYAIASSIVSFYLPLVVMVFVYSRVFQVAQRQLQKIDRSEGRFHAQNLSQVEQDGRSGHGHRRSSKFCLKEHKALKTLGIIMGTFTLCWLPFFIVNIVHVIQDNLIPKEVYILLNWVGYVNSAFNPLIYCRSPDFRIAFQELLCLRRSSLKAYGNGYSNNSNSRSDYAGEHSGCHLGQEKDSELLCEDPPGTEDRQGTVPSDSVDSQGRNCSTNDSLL
smiles,measurement,setting,value
"C[C@H](N)[C@H](O)c1cccc(O)c1 (relative stereo) [R-(R*,S*) metaraminol]",effect of triprolidine pretreatment on stimulant or depressant effects,Swiss-Webster mice [1],failed to show significant modification of stimulant or depressant effects
same,Depression Time: 30-min period following injection in which the maximal depression occurred,Swiss-Webster mice [2],30 to 60 min
same,Stimulation Time: 30-min period following injection in which the maximal stimulant effect occurred,Swiss-Webster mice [2],90 to 120 min
same,"locomotor depressant effects, time course (result in words)",Swiss-Webster mice [2],dose-dependent locomotor depression within 10 to 20 minutes following injection
same,Depression Efficacy: ratio of the maximal depressant effect to the maximum possible effect (zero locomotor activity),Swiss-Webster mice [2],0.87
same,Stimulation Efficacy: ratio of the maximal stimulant effect of the test compound to the maximal effect of (+)-amphetamine,Swiss-Webster mice [2],0
same,Depression Potency: dose resulting in ½ the maximal depressant effect (ID50),Swiss-Webster mice [2]; [3],4.3 mg/kg
"CC(N)Cc1ccccc1 (single isomer, unassigned; (+)) [(+)-amphetamine, (+)-Amphetamine]","locomotor stimulant effects, time course (result in words)",Swiss-Webster mice [2],dose- and time-dependent increase in the distance traversed within 10 minutes following injection
CNC[C@H](O)c1ccc(O)c(O)c1 [Epinephrine],displacement of bound p-iodoclonidine,"α2 adrenergic receptors; α2-displacement assay, check for imidazoline receptors",easily displaced all bound p-iodoclonidine
"CC(C)(C)NCC(O)COc1cccc2[nH]c(C#N)c(I)c12 (centres unmarked) [ICYP, iodocyanopindolol]",Kd,"β2 adrenergic receptors; Saturation Analysis, Run 1",9.6 pM
same,Kd,"β2 adrenergic receptors; Saturation Analysis, Run 2",9.3 pM
same,Kd,"β2 adrenergic receptors; Saturation Analysis, Summary",9.5 pM
same,Kd,"β2 adrenergic receptors; Scatchard Analysis, Run 1",9.9 pM
same,Kd,"β2 adrenergic receptors; Scatchard Analysis, Run 2",7.8 pM
same,Kd,"β2 adrenergic receptors; Scatchard Analysis, Summary",8.9 pM
CNC(C)(C)Cc1ccccc1 [mephentermine],effect of triprolidine pretreatment on stimulant or depressant effects,Swiss-Webster mice [1],failed to show significant modification of stimulant or depressant effects
same,Depression Time: 30-min period following injection in which the maximal depression occurred,Swiss-Webster mice [2],0 to 30 min
same,Stimulation Time: 30-min period following injection in which the maximal stimulant effect occurred,Swiss-Webster mice [2],20 to 50 min
same,"locomotor stimulant effects, time course (result in words)",Swiss-Webster mice [2],"increased locomotion following from 5 to 25 mg/kg, with effects occurring within 20 minutes and lasting for up to 80 minutes"
same,time of peak stimulant effects following injection,Swiss-Webster mice [2],20 to 50 min
same,Depression Efficacy: ratio of the maximal depressant effect to the maximum possible effect (zero locomotor activity),Swiss-Webster mice [2],0
same,Stimulation Efficacy: ratio of the maximal stimulant effect of the test compound to the maximal effect of (+)-amphetamine,Swiss-Webster mice [2],1.25
same,Stimulation Potency: dose resulting in ½ the maximal stimulant effect (ID50),Swiss-Webster mice [2]; [3],5.6 mg/kg
Clc1cc(I)cc(Cl)c1NC1=NCCN1 [p-iodoclonidine],Kd,"α2 adrenergic receptors; Saturation Analysis, read-out: Kd1 (high affinity)",150 pM
same,Kd,"α2 adrenergic receptors; Saturation Analysis, read-out: Kd2 (low affinity)",3010 pM
same,Kd,"α2 adrenergic receptors; Scatchard Analysis, read-out: Kd1 (high affinity)",150 pM
same,Kd,"α2 adrenergic receptors; Scatchard Analysis, read-out: Kd2 (low affinity)",870 pM
"Cc1ccc(/C(=C\CN2CCCC2)c2ccccn2)cc1 [triprolidine, Triprolidine HCl]","effect on horizontal distance, triprolidine alone","Swiss-Webster mice [1]; 0.25 to 25 mg/kg, 2-hour test period",failed to affect horizontal distance
same,"effect on locomotion, triprolidine alone",Swiss-Webster mice [1]; 50 and 100 mg/kg,Dose-dependent depression of locomotion
